{
  "source": "ChEMBL document CHEMBL5625222",
  "about": "“Design, synthesis, and biological evaluation of 1,6-naphthyridine-2-one derivatives as novel FGFR4 inhibitors for the treatment of colorectal cancer” (Eur J Med Chem, 2023)",
  "key": {"RKO [1]": {"system": "RKO", "assay": "Anti-migration activity in human RKO cells assessed as downregulation of FAK phosphorylation by Western blotting analysis", "assay_type": "functional, cell-based"}, "[2]": {"assay": "Toxicity in BALB/c mouse xenografted with human HCT-116 cells assessed as histopathological change in liver at 20 mg/kg,ip administrated for 2 weeks by hematoxylin and eosin staining based analysis", "assay_type": "organism-based", "settings": "in vivo, 336 h"}, "HCT-116 [3]": {"system": "HCT-116", "assay": "Anti-migration activity in human HCT-116 cells assessed as loss of actin cytoskeletal fibers at 3 to 12 uM by immunofluorescence assay", "assay_type": "functional, cell-based", "settings": "dose 3-12 µM"}, "[4]": {"assay": "Toxicity in BALB/c mouse xenografted with human HCT-116 cells assessed as change in serum ALT level at 10 mg/kg,ip administrated for 2 weeks", "assay_type": "organism-based", "settings": "in vivo, 336 h"}, "HCT-116 [5]": {"system": "HCT-116", "assay": "Antitumor activity against human HCT-116 cells xenografted in BALB/c mouse assessed as upregulation of E-cad expression in tumor at 20 mg/kg,ip administrated for 2 weeks by Western blotting analysis", "assay_type": "functional, organism-based"}, "[6]": {"assay": "Toxicity in BALB/c mouse xenografted with human HCT-116 cells assessed as change in lung weight at 20 mg/kg,ip administrated for 2 weeks", "assay_type": "organism-based", "settings": "in vivo, 336 h"}, "[7]": {"assay": "Toxicity in BALB/c mouse xenografted with human HCT-116 cells assessed as change in kidney weight at 10 mg/kg,ip administrated for 2 weeks", "assay_type": "organism-based", "settings": "in vivo, 336 h"}, "[8]": {"assay": "Toxicity in BALB/c mouse xenografted with human HCT-116 cells assessed as histopathological change in liver at 10 mg/kg,ip administrated for 2 weeks by hematoxylin and eosin staining based analysis", "assay_type": "organism-based", "settings": "in vivo, 336 h"}, "HCT-116 [9]": {"system": "HCT-116", "assay": "Anti-migration activity in human HCT-116 cells assessed as change in FAK distribution at 3 to 12 uM by immunofluorescence assay", "assay_type": "functional, cell-based", "settings": "dose 3-12 µM"}, "HCT-116 [10]": {"system": "HCT-116", "assay": "Induction of apoptosis in human HCT-116 cells assessed as downregulation of ratio of Bcl-2/Bax expression at 3 to 12 uM incubated for 48 hrs by Western blotting analysis", "assay_type": "functional, cell-based", "settings": "dose 3-12 µM"}, "[11]": {"assay": "Toxicity in ICR mouse assessed as change in body weight at 20 mg/kg,po administrated for 1 week", "assay_type": "organism-based", "settings": "in vivo, 168 h, time 1 weeks"}, "HCT-116 [12]": {"system": "HCT-116", "assay": "Antitumor activity against human HCT-116 cells xenografted in BALB/c mouse assessed as downregulation of FGFR4 signalling pathway in tumor at 20 mg/kg,ip administrated for 2 weeks by Western blotting analysis", "assay_type": "functional, organism-based"}, "HCT-116 [13]": {"system": "HCT-116", "assay": "Antiproliferative activity against human HCT-116 cells assessed as inhibition of colony formation incubated for 2 weeks by crystal violet staining method", "assay_type": "functional, cell-based"}, "[14]": {"assay": "Hepatotoxicity in ICR mouse assessed as change in serum creatinine level at 20 mg/kg,po administrated for 1 week", "assay_type": "toxicity, organism-based", "settings": "in vivo, 168 h, time 1 weeks"}, "HCT-116 [15]": {"system": "HCT-116", "assay": "Antitumor activity against human HCT-116 cells xenografted in BALB/c mouse assessed as chromatin condensation at 10 mg/kg,ip administrated for 2 weeks by hematoxylin and eosin staining based analysis", "assay_type": "functional, organism-based"}, "[16]": {"assay": "Toxicity in ICR mouse assessed as change in kidney weight at 60 mg/kg,po administrated for 1 week", "assay_type": "organism-based", "settings": "in vivo, 168 h, time 1 weeks"}, "HCT-116 [17]": {"system": "HCT-116", "assay": "Antitumor activity against human HCT-116 cells xenografted in BALB/c mouse assessed as decrease in CD68 expression in tumor tissue at ip administrated for 2 weeks by immunohistochemical analysis", "assay_type": "functional, organism-based"}, "RKO [18]": {"system": "RKO", "assay": "Induction of apoptosis in human RKO cells assessed as downregulation of ratio of Bcl-2/Bax expression at 3 to 12 uM incubated for 48 hrs by Western blotting analysis", "assay_type": "functional, cell-based", "settings": "dose 3-12 µM"}, "HCT-116 [19]": {"system": "HCT-116", "assay": "Antitumor activity against human HCT-116 cells xenografted in BALB/c mouse assessed as change in cell morphology at 20 mg/kg,ip administrated for 2 weeks by hematoxylin and eosin staining based analysis", "assay_type": "functional, organism-based"}, "HCT-116 [20]": {"system": "HCT-116", "assay": "Antitumor activity against human HCT-116 cells xenografted in BALB/c mouse assessed as downregulation of FAK expression in tumor at 10 mg/kg,ip administrated for 2 weeks by Western blotting analysis", "assay_type": "functional, organism-based"}, "[21]": {"assay": "Toxicity in BALB/c mouse xenografted with human HCT-116 cells assessed as histopathological change in kidney at 10 mg/kg,ip administrated for 2 weeks by hematoxylin and eosin staining based analysis", "assay_type": "organism-based", "settings": "in vivo, 336 h"}, "SW480 [22]": {"system": "SW480", "assay": "Anti-migration activity in human SW480 cells assessed as change in FAK distribution at 3 to 12 uM by immunofluorescence assay", "assay_type": "functional, cell-based", "settings": "dose 3-12 µM"}, "[23]": {"assay": "Toxicity in ICR mouse assessed as change in spleen weight at 20 mg/kg,po administrated for 1 week", "assay_type": "organism-based", "settings": "in vivo, 168 h, time 1 weeks"}, "[24]": {"assay": "Toxicity in BALB/c mouse xenografted with human HCT-116 cells assessed as change in liver weight at 10 mg/kg,ip administrated for 2 weeks", "assay_type": "organism-based", "settings": "in vivo, 336 h"}, "RKO [25]": {"system": "RKO", "assay": "Anti-migration activity in human RKO cells assessed as change in N-cad expression at 3 to 12 uM by Western blotting analysis", "assay_type": "functional, cell-based", "settings": "dose 3-12 µM"}, "RKO [26]": {"system": "RKO", "assay": "Anti-migration activity in human RKO cells assessed as upregulation of E-cad expression by Western blotting analysis", "assay_type": "functional, cell-based"}, "SW480 [27]": {"system": "SW480", "assay": "Anti-migration activity in human SW480 cells assessed as upregulation of E-cad expression by Western blotting analysis", "assay_type": "functional, cell-based"}},
  "note": "Active and inactive are the calls of the source. No cut-off for these calls is given here.",
  "data": [
    {"smiles": "C=CC(=O)NCCCn1c(=O)c(-c2c(Cl)c(OC)cc(OC)c2Cl)cc2cnc(Nc3c(C)cccc3NC(=O)C=C)cc21", "values": [
      {"measurement": "Activity", "setting": "RKO [1]", "result": "Dose-Dependent Effect"},
      {"measurement": "Activity", "setting": "[2]", "result": "Non-Toxic"},
      {"measurement": "Activity", "setting": "HCT-116 [3]", "result": "Active"},
      {"measurement": "Activity", "setting": "[4]", "result": "Non-Toxic"},
      {"measurement": "Activity", "setting": "HCT-116 [5]", "result": "Active"},
      {"measurement": "Activity", "setting": "[6]", "result": "Non-Toxic"},
      {"measurement": "Activity", "setting": "[7]", "result": "Non-Toxic"},
      {"measurement": "Activity", "setting": "[8]", "result": "Non-Toxic"},
      {"measurement": "Activity", "setting": "HCT-116 [9]", "result": "Active"},
      {"measurement": "Activity", "setting": "HCT-116 [10]", "result": "Active"},
      {"measurement": "Activity", "setting": "[11]", "result": "Non-Toxic"},
      {"measurement": "Activity", "setting": "HCT-116 [12]", "result": "Active"},
      {"measurement": "Activity", "setting": "HCT-116 [13]", "result": "Dose-Dependent Effect"},
      {"measurement": "Activity", "setting": "[14]", "result": "Non-Toxic"},
      {"measurement": "Activity", "setting": "HCT-116 [15]", "result": "Active"},
      {"measurement": "Activity", "setting": "[16]", "result": "Non-Toxic"},
      {"measurement": "Activity", "setting": "HCT-116 [17]", "result": "Dose-Dependent Effect"},
      {"measurement": "Activity", "setting": "RKO [18]", "result": "Active"},
      {"measurement": "Activity", "setting": "HCT-116 [19]", "result": "Active"},
      {"measurement": "Activity", "setting": "HCT-116 [20]", "result": "Active"},
      {"measurement": "Activity", "setting": "[21]", "result": "Non-Toxic"},
      {"measurement": "Activity", "setting": "SW480 [22]", "result": "Active"},
      {"measurement": "Activity", "setting": "[23]", "result": "Non-Toxic"},
      {"measurement": "Activity", "setting": "[24]", "result": "Non-Toxic"},
      {"measurement": "Activity", "setting": "RKO [25]", "result": "inactive"},
      {"measurement": "Activity", "setting": "RKO [26]", "result": "Dose-Dependent Effect"},
      {"measurement": "Activity", "setting": "SW480 [27]", "result": "Dose-Dependent Effect"}
    ]}
  ]
}
